Patent US20260256792A1, “TREATMENT OF CHRONIC SPONTANEOUS URTICARIA BY ADMINISTERING (R)-2-[3-[4-AMINO-3-(2-FLUORO-4-PHENOXY-PHENYL)PYRAZOLO[3,4-D]PYRIMIDIN-1-YL]PIPERIDINE-1-CARBONYL]-4-METHYL-4-[4-(OXETAN-3-YL)PIPERAZIN-1-YL]PENT-2-ENENITRILE” (priority 2023, published 2026)

Test system: moderate-to-severe chronic spontaneous urticaria (CSU)
Assay: Phase 2 CSU study: itch severity score over 7 days (ISS7)
Format: in vivo, human
Description: The study comprises a 12 week, randomized, double-blind, placebo-controlled, multi-center, dose-ranging efficacy and safety phase, followed by a 40 week open label extension (OLE) phase (see FIG. 1). The study consists of three phases and an optional OLE phase. […] Clinically, CSU is characterized by the spontaneous and recurrent appearance of pruritic hives. The proposed primary endpoints were the UAS7 at Week 12 in EU and EU reference countries and the ISS7 in the US. Regardless of where a participant was from, all assessments were the same. The UAS7 score is a composite score containing both the HSS7 and the ISS7. This allowed a global assessment of the two key components of urticaria: hives and itch. […] The UAS is a validated PRO measure. […] The daily UAS scores range from 0 to 6 point/day. […] Patients were to complete the UAS using the e-diary. […] The following secondary endpoints were to be analyzed using the same approach as for the primary endpoint: • Change from baseline in UAS7 at Week 4 • Change from baseline in UAS7 at Week 12 (for US and US reference countries) • Change from baseline in ISS7 at Week 12 (except US and US reference countries) • Change from baseline in HSS7 at Week 12

[1] = Week 7, 400 mg TID, Omalizumab-Naïve
[2] = Week 7, 400 mg TID, Prior Omalizumab Use
[3] = Week 8, 400 mg BID, Omalizumab-Naïve
[4] = Week 8, 400 mg BID, Prior Omalizumab Use
[5] = Week 8, 400 mg QPM, Omalizumab-Naïve
[6] = Week 8, 400 mg QPM, Prior Omalizumab Use
[7] = Week 8, 400 mg TID, Omalizumab-Naïve
[8] = Week 8, 400 mg TID, Prior Omalizumab Use
[9] = Week 9, 400 mg BID, Omalizumab-Naïve
[10] = Week 9, 400 mg BID, Prior Omalizumab Use
[11] = Week 9, 400 mg QPM, Omalizumab-Naïve
[12] = Week 9, 400 mg QPM, Prior Omalizumab Use
[13] = Week 9, 400 mg TID, Omalizumab-Naïve
[14] = Week 9, 400 mg TID, Prior Omalizumab Use
[15] = Week 10, 400 mg BID, Omalizumab-Naïve
[16] = Week 10, 400 mg BID, Prior Omalizumab Use

## CC(C)(C=C(C#N)C(=O)N1CCC[C@@H](n2nc(-c3ccc(Oc4ccccc4)cc3F)c3c(N)ncnc32)C1)N1CCN(C2COC2)CC1 [rilzabrutinib, (R)-2-[3-[4-amino-3-(2-fluoro-4-phenoxy-phenyl)pyrazolo[3,4-d]pyrimidin-1-yl]piperidine-1-carbonyl]-4-methyl-4-[4-(oxetan-3-yl)piperazin-1-yl]pent-2-enenitrile]
[1]
  ISS7 Change from baseline Mean (SD): −8.96 (5.57)
  ISS7 Change from baseline Median: −9.00
  ISS7 Mean (SD): 7.14 (5.35)
  ISS7 Median: 8.00
  ISS7 Percent change from baseline Mean (SD): −55.24 (31.64) %
  ISS7 Percent change from baseline Median: −52.66%
[2]
  ISS7 Change from baseline Mean (SD): −9.94 (7.89)
  ISS7 Change from baseline Median: −7.33
  ISS7 Mean (SD): 7.06 (6.25)
  ISS7 Median: 6.00
  ISS7 Percent change from baseline Mean (SD): −54.94 (32.91) %
  ISS7 Percent change from baseline Median: −48.16%
[3]
  ISS7 Change from baseline Mean (SD): −8.15 (6.15)
  ISS7 Change from baseline Median: −9.00
  ISS7 Mean (SD): 7.33 (6.55)
  ISS7 Median: 6.00
  ISS7 Percent change from baseline Mean (SD): −53.11 (38.61) %
  ISS7 Percent change from baseline Median: −60.00%
[4]
  ISS7 Change from baseline Mean (SD): −11.00 (9.49)
  ISS7 Change from baseline Median: −14.00
  ISS7 Mean (SD): 6.20 (8.32)
  ISS7 Median: 1.00
  ISS7 Percent change from baseline Mean (SD): −61.52 (49.97) %
  ISS7 Percent change from baseline Median: −93.33%
[5]
  ISS7 Change from baseline Mean (SD): −6.03 (4.99)
  ISS7 Change from baseline Median: −6.00
  ISS7 Mean (SD): 10.72 (5.26)
  ISS7 Percent change from baseline Mean (SD): −36.14 (28.79) %
  ISS7 Percent change from baseline Median: −33.68%
[6]
  ISS7 Change from baseline Mean (SD): −14.00 (NC)
  ISS7 Change from baseline Median: −14.00
  ISS7 Mean (SD): 7.00 (NC)
  ISS7 Median: 7.00
[7]
  ISS7 Change from baseline Mean (SD): −9.01 (5.43)
  ISS7 Change from baseline Median: −9.33
  ISS7 Mean (SD): 7.24 (5.51)
  ISS7 Median: 7.00
  ISS7 Percent change from baseline Mean (SD): −55.59 (31.84) %
  ISS7 Percent change from baseline Median: −53.49%
[8]
  ISS7 Change from baseline Mean (SD): −12.67 (6.71)
  ISS7 Change from baseline Median: −14.00
  ISS7 Mean (SD): 4.33 (6.83)
  ISS7 Median: 1.50
  ISS7 Percent change from baseline Mean (SD): −77.10 (31.49) %
  ISS7 Percent change from baseline Median: −86.61%
[9]
  ISS7 Change from baseline Mean (SD): −7.57 (6.14)
  ISS7 Change from baseline Median: −8.00
  ISS7 Mean (SD): 7.63 (7.11)
  ISS7 Median: 7.00
  ISS7 Percent change from baseline Mean (SD): −51.57 (40.77) %
  ISS7 Percent change from baseline Median: −53.33%
[10]
  ISS7 Change from baseline Mean (SD): −10.83 (9.53)
  ISS7 Change from baseline Median: −15.00
  ISS7 Mean (SD): 6.37 (8.47)
  ISS7 Median: 1.00
  ISS7 Percent change from baseline Mean (SD): −60.71 (51.74) %
  ISS7 Percent change from baseline Median: −95.24%
[11]
  ISS7 Change from baseline Mean (SD): −6.39 (5.27)
  ISS7 Change from baseline Median: −5.42
  ISS7 Percent change from baseline Mean (SD): −37.00 (28.06) %
  ISS7 Percent change from baseline Median: −33.33%
[12]
  ISS7 Change from baseline Mean (SD): 11.00 (NC)
  ISS7 Change from baseline Median: −11.00
  ISS7 Mean (SD): 10.00 (NC)
  ISS7 Percent change from baseline Mean (SD): −52.38 (NC) %
  ISS7 Percent change from baseline Median: −52.38%
[13]
  ISS7 Change from baseline Mean (SD): −9.70 (5.57)
  ISS7 Change from baseline Median: −10.00
  ISS7 Mean (SD): 6.68 (5.31)
  ISS7 Median: 7.00
  ISS7 Percent change from baseline Mean (SD): −58.56 (30.66) %
  ISS7 Percent change from baseline Median: −65.00%
[14]
  ISS7 Change from baseline Mean (SD): −12.36 (6.72)
  ISS7 Change from baseline Median: −13.92
  ISS7 Mean (SD): 4.64 (6.72)
  ISS7 Median: 2.00
  ISS7 Percent change from baseline Mean (SD): −74.49 (30.89) %
  ISS7 Percent change from baseline Median: −83.01%
[15]
  ISS7 Change from baseline Mean (SD): −7.07 (6.58)
  ISS7 Change from baseline Median: −7.58
  ISS7 Mean (SD): 8.17 (7.29)
  ISS7 Median: 7.00
  ISS7 Percent change from baseline Mean (SD): −47.10 (43.27) %
  ISS7 Percent change from baseline Median: −48.10%
[16]
  ISS7 Change from baseline Mean (SD): −9.80 (9.55)
  ISS7 Change from baseline Median: −11.00
  ISS7 Mean (SD): 7.40 (8.11)
  ISS7 Median: 4.00
  ISS7 Percent change from baseline Mean (SD): −53.71 (50.05) %
  ISS7 Percent change from baseline Median: −73.33%
Week 10, 400 mg QPM, Omalizumab-Naïve
  ISS7 Change from baseline Mean (SD): −6.43 (5.26)
